The subject of data set [1] is AIM2-dependent cell death. Put plainly: LDH release (pyroptosis) after LPS and poly(dA:dT), AIM2-dependent. The conditions noted are these: LPS + poly(dA:dT). It is filed as cell-based, murine. As for the experimental part: […]. All data are means ± SEM (n = 3), Student's t-test. *P ≤ 0.05, **P ≤ 0.01, ***P ≤ 0.001.
To assess pyroptosis, cytosolic lactate dehydrogenase (LDH) release was measured as a marker of cell lysis. […] […]. All assays were performed according to the manufacturer's instructions. A two-tailed unpaired t-test was performed using GraphPad Prism 9.
Background: LDH in the medium is a marker of cell lysis.

The test system of data set [2] is AIM2 inflammasome. Put plainly: IL-1β release (HTRF) after LPS priming and poly(dA:dT) transfection, AIM2 inflammasome. The conditions noted are these: poly(dA:dT). On the technique in general: In TR-FRET formats the signal depends on donor and acceptor labels being close together.
Method: The following experiments were performed with probes 1–4 in immortalized murine bone marrow-derived macrophages. […] For this purpose, AIM2 was stimulated by transfection with poly(deoxyadenylic-deoxythymidylic) acid [poly(dA:dT)] after pretreatment with LPS. A Homogeneous Time Resolved Fluorescence (HTRF) assay was employed to determine the release of IL-1β (Figure 5).
Data set [3] addresses human NLRP3-PYD-NACHT domain protein (Homo sapiens, UniProt Q96P20). The data set is described as follows: SPR single-cycle kinetic binding to immobilized biotinylated NLRP3-PYD-NACHT. The following applies: for kd, first-order off-rate constant for dissociation: SPR, 25 °C, 1:1 binding model; for kon: read-out: ka, second-order on-rate constant for association.
Method: HEK293T cells were transiently co-transfected with human avi-FLAG-His10-NLRP3-PYD-NACHT domain (pIRES puro 3 vector) and BirA (pcDNA3.1 vector) for in-cell biotinylation at the lysine amino group of the Avi-tag. […] Eluted protein was stored snap frozen in liquid nitrogen, aliquoted, and stored at −80 °C.
(§1) SPR experiments were performed using a Biacore 8K instrument (GE Healthcare). The flow system was cleaned using the maintenance “Desorb” function (Desorb Kit, GE Healthcare). […] Biotinylated NLRP3-PYD-NACHT protein (2 μL/min, 900 s) was immobilized on the sensor chip flow cell 2. The flow system was washed using 50% isopropanol in 1 M NaCl and 50 mM NaOH. Free streptavidin binding sites were blocked by four consecutive 2-min injections (1,000 nM, 10 μL/min) of Biotin-PEG (Mn = 2,300 Da) (Sigma Aldrich). […] Data were collected at a rate of 10 Hz. The binding data were double referenced by blank cycle and reference flow cell subtraction. Data were corrected by a 4-point solvent correction. For kinetic binding experiments, processed data were fitted to a 1:1 interaction model using the Biacore Insight Evaluation Software (version 3.0.12.15655).
Data set [4] has as its target human NLRP3-PYD-NACHT (Homo sapiens, UniProt Q96P20). Put plainly: SPR competition mode (second ligand injected 120 s after the first). The conditions noted are these: competition with CRID3/MCC950, equimolar, 10-times the kinetic KD of the test compound, either order of injection.
Method: as §1
Data set [5] deals with NLRP3 inflammasome. The data set is described as follows: IL-1β release (HTRF) after LPS priming and nigericin, NLRP3 inflammasome. The conditions noted are these: for effect on cytokine (IL-1β) release: 20 μM. Format: cell-based, murine. The method, then: The following experiments were performed with probes 1–4 in immortalized murine bone marrow-derived macrophages. Nigericin, an antibiotic carboxylate ionophore, was used as the activator of the NLRP3 inflammasome, owing to its ability to induce a potassium efflux. […] For this purpose, AIM2 was stimulated by transfection with poly(deoxyadenylic-deoxythymidylic) acid [poly(dA:dT)] after pretreatment with LPS. A Homogeneous Time Resolved Fluorescence (HTRF) assay was employed to determine the release of IL-1β (Figure 5).
All data are means ± SEM (n = 3), Student's t-test. *P ≤ 0.05, **P ≤ 0.01, ***P ≤ 0.001.
NLRP3 KO Immortalized murine bone marrow-derived macrophages overexpressing mouse NLRP3-Flag and human ASC-mCerulean were seeded in 96-well plates and incubated for 16 h. Cells were treated with 400 ng/mL ultrapure LPS for 3 h. […] Subsequently, to induce NLRP3 inflammasome activation, cells were treated with 10 μM nigericin for 1.5 h. As controls, to activate the AIM2 inflammasome, cells were transfected with 200 ng of poly(dA:dT) using 0.5 μL lipofectamine 2,000 per well for 4 h. Supernatants were collected to measure cytosolic LDH release by an LDH assay and IL-1ß release by Homogeneous Time Resolved Fluorescence (HTRF). All assays were performed according to the manufacturer's instructions. A two-tailed unpaired t-test was performed using GraphPad Prism 9.

Data set [6] deals with immortalized murine bone marrow-derived macrophages. Put plainly: CellTiter-Blue cell viability assay. Format: cell-based. The following applies: 4 h in Opti-MEM, tested 625 nM to 40 μM. As for the experimental part:
Next, the probes were examined in cell culture experiments. First, we determined the cytotoxicity of probes 1–4 at different concentrations between 625 nM and 40 μM in immortalized murine bone marrow-derived macrophages (Figure 4).
Figure 4 Cell viability of immortalized murine bone marrow-derived macrophages after treatment with probes 1–4. Cells were treated with the probes at different concentrations in Opti-MEM for 4 h. Cell viability was assessed using the CellTiter-Blue cell viability assay.
NLRP3 KO immortalized murine bone marrow-derived macrophages overexpressing mouse NLRP3-FLAG and human ASC-mCerulean were seeded in 96 well plates and incubated overnight. Cells were treated with the fluorescent probes (1 and 2) and the biotin-tagged probes (3 and 4) at different concentrations in Opti-MEM for 4 h. Subsequently, cell viability was assessed using CellTiter-Blue® cell viability assay according to the manufacturer's instructions.

Data set [7] relates to NLRP3-dependent cell death. Put plainly: LDH release (pyroptosis) after LPS and nigericin, NLRP3-dependent. It is filed as cell-based, murine. The following applies: LPS + nigericin.
Method: NLRP3 KO Immortalized murine bone marrow-derived macrophages overexpressing mouse NLRP3-Flag and human ASC-mCerulean were seeded in 96-well plates and incubated for 16 h. Cells were treated with 400 ng/mL ultrapure LPS for 3 h. […] Subsequently, to induce NLRP3 inflammasome activation, cells were treated with 10 μM nigericin for 1.5 h. […] Supernatants were collected to measure cytosolic LDH release by an LDH assay and IL-1ß release by Homogeneous Time Resolved Fluorescence (HTRF). All assays were performed according to the manufacturer's instructions. A two-tailed unpaired t-test was performed using GraphPad Prism 9.
Where [8] appears, read: concentrations of Figure 5 (not given).

From paper PMC8115122, “Development of Fluorescent and Biotin Probes Targeting NLRP3” (Frontiers in Chemistry, 2021) come the findings set out here.

Chain of human NLRP3-PYD-NACHT domain protein (Q96P20 1-649 limits assumed): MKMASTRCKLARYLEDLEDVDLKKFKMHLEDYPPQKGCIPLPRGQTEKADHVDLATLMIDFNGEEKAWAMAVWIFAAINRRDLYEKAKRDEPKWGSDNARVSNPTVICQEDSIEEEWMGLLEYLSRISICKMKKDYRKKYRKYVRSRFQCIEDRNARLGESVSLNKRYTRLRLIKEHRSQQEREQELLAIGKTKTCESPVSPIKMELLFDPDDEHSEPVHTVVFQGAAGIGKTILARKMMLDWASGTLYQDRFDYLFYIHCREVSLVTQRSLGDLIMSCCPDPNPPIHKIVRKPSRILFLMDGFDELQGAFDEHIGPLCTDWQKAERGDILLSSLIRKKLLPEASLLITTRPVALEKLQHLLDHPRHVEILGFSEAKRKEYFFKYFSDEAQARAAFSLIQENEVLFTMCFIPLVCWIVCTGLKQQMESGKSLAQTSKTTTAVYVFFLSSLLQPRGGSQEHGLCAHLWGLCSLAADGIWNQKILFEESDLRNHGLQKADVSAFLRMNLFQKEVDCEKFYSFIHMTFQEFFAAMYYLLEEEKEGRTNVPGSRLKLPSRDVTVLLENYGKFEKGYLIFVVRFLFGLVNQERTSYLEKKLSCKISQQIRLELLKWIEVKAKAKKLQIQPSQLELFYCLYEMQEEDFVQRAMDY
Chain of human NLRP3-PYD-NACHT (Q96P20 1-649 limits assumed): as above

For `CC(C)(O)c1coc(S(=O)(=O)NC(=O)Nc2c3c(cc4c2CCC4)CCC3)c1` [CRID3/MCC950, reference compound], the “AIM2-dependent cell death (LDH release)” value in data set [1] (2.5 μM) was “but not the AIM2-dependent cell death”. Also, the “AIM2-dependent IL-1β release” value in data set [2] (setting [8]) is on record as “did not affect this process”.

Consider `O=C(CCCCC1SCC2NC(=O)NC21)NCc1ccc(S(=O)(=O)NC(=O)Nc2c3c(cc4c2CCC4)CCC3)cc1` (centres unmarked) [Compound 4], for which, in data set [3], the Kd is 611 nM; the “kd, first-order off-rate constant for dissociation” value (from here on “kd, first-order off-rate constant”) turned out to be 0.0088 s⁻¹; the kon worked out at 14000 M⁻¹ s⁻¹. The “response change indicative of a second binding site” value in data set [4] is recorded as “No significant response change”. In data set [5], the “effect on cytokine (IL-1β) release” value was “did not significantly affect the cytokine release”. Further, the “non-toxic up to concentration” value in data set [6] is reported as “up to 40 μM”.

On to `O=C(COCCOCCNC(=O)c1cc2cc3c4c(c2oc1=O)CCCN4CCC3)NCc1ccc(S(=O)(=O)NC(=O)Nc2c3c(cc4c2CCC4)CCC3)cc1` [Compound 1, N-(2-(2-(2-([4-(N-([1,2,3,5,6,7-Hexahydro-s-indacen-4-yl]carbamoyl)sulfamoyl)benzyl]amino)-2-oxoethoxy)ethoxy)ethyl)-11-oxo-2,3,6,7-tetrahydro-1H,5H,11H-pyrano[2,3-f]pyrido[3,2,1-ij]quinoline-10-carboxamide], for which, in data set [1] (10 μM), the “AIM2-dependent cell death (LDH release)” value is “but not the AIM2-dependent cell death”. Also, the “AIM2-dependent IL-1β release” value in data set [2] (setting [8]) was “did not affect this process”. Moreover, in data set [3], binding was characterised by a dissociation constant (Kd) of 813 nM; the “kd, first-order off-rate constant” value was found to be 0.01 s⁻¹; the kon was determined as 13000 M⁻¹ s⁻¹. Besides, the “NLRP3-dependent cell death (LDH release)” value in data set [7] (10 μM) is “prevented”. In data set [5] (10 μM), the “inhibition of IL-1β release” value is given as “complete inhibition”. Besides, the “non-toxic up to concentration” value in data set [6] is reported as “up to 10 μM”.

`O=C(CCCC[C@H]1SC[C@H]2NC(=O)N[C@H]21)NCCOCCOCC(=O)NCc1ccc(S(=O)(=O)NC(=O)Nc2c3c(cc4c2CCC4)CCC3)cc1` [Compound 3, N-(2-(2-(2-([4-(N-([1,2,3,5,6,7-Hexahydro-s-indacen-4-yl]carbamoyl)sulfamoyl)benzyl]amino)-2-oxoethoxy)ethoxy)ethyl)-5-([3aR,4R,6aS]-2-oxohexahydro-1H-thieno[3,4-d]imidazol-4-yl)pentanamide] gave a melting point of 140 to 142 °C. In data set [3], the Kd was found to be 1030 nM; the “kd, first-order off-rate constant” value worked out at 0.022 s⁻¹; the kon is 22000 M⁻¹ s⁻¹. In addition, the “effect on cytokine (IL-1β) release” value in data set [5] is recorded as “did not significantly affect the cytokine release”. For the same molecule, in data set [6], the “non-toxic up to concentration” value is listed as “up to 40 μM”.

On to `O=C(Nc1c2c(cc3c1CCC3)CCC2)NS(=O)(=O)c1ccc(CNC(=O)c2cc3cc4c5c(c3oc2=O)CCCN5CCC4)cc1` [Compound 2], for which the “AIM2-dependent cell death (LDH release)” value in data set [1] (2.5 μM) is on record as “but not the AIM2-dependent cell death”. Moreover, the “AIM2-dependent IL-1β release” value in data set [2] (2.5 μM) is “only a slightly reduced AIM2-dependent release of IL-1β”. Besides, in data set [2] (20 μM, data not shown, attributed to cytotoxicity), the “AIM2-dependent IL-1β release” value is listed as “reduced AIM2-dependent IL-1β release”. Moreover, in data set [3], the Kd worked out at 322 nM; the “kd, first-order off-rate constant” value was 0.0033 s⁻¹; the kon was 10000 M⁻¹ s⁻¹. Moreover, in data set [7] (2.5 μM), the “NLRP3-dependent cell death (LDH release)” value is given as “prevented”. For the same molecule, in data set [4], the “response change indicative of a second binding site” value is “No significant response change”. In data set [5] (2.5 μM), the “inhibition of IL-1β release” value is reported as “complete inhibition”. For the same molecule, in data set [6], the “some cytotoxicity at concentrations higher than” value is “higher than 2.5 μM”.

For orientation: Kd means the free concentration of one partner at which half of the binding sites on the other are occupied at equilibrium, for simple one-to-one binding. A high value points to lower affinity. Broadly, the melting point is the temperature of the solid-liquid transition.
